pIC50: −log10 of the molar value.
Columns and labels:
[1] = system: multidrug-resistant P. aeruginosa clinical isolates from Walter Reed Army Hospital; assay: Levofloxacin MIC potentiation, WRAIR MRSN isolates; format: cell-based, Pseudomonas aeruginosa
Procedure: (§1) MIC assays for potentiation of antimicrobial activity against P. aeruginosa were performed as described previously.

P. aeruginosa ATCC 27853 [2] = assay: Intracellular ATP levels; format: cell-based, Pseudomonas aeruginosa; details: three hours post-treatment
Procedure: Further, a deviation from normal membrane function can affect the activity of respiratory components and diminish ATP synthesis. Thus, an indirect approach to assess a drug’s membrane effect is by monitoring cellular ATP levels after treatment. To exclude ATP depletion as a TXA11114 MoA, bacterial ATP levels were evaluated three hours post-treatment. […] Azithromycin was used as a negative control.
P. aeruginosa intracellular ATP levels were determined as described previously using an ATP determination kit (Invitrogen, Life Technologies, Carlsbad, CA, USA). Bacterial culture strain ATCC 27853 was grown to the mid-log phase (OD600 = 0.7), washed, and resuspended in the same volume of PBSM (1X PBS, 1mM MgCl2). […] After treatment, the cells were lysed in chloroform which was subsequently removed by boiling at 80 °C. The persistent ATP from cell lysate was measured in a 96-well black flat-bottom plate by measuring the luminescence. Luminescence was converted to concentration from standard curve. […] Error bars represent the standard deviation of triplicates.

CYP1A2 = biological target: T1, CYP1A2 (Homo sapiens, UniProt P05177); assay: Cytochrome P450 inhibition; format: in vitro ADME; details: human liver microsomes; read-out: CYP Inhibition IC50, 1A2
T1 construct: from tissue; host or cells: human liver microsomes
T1 sequence (P05177 whole entry): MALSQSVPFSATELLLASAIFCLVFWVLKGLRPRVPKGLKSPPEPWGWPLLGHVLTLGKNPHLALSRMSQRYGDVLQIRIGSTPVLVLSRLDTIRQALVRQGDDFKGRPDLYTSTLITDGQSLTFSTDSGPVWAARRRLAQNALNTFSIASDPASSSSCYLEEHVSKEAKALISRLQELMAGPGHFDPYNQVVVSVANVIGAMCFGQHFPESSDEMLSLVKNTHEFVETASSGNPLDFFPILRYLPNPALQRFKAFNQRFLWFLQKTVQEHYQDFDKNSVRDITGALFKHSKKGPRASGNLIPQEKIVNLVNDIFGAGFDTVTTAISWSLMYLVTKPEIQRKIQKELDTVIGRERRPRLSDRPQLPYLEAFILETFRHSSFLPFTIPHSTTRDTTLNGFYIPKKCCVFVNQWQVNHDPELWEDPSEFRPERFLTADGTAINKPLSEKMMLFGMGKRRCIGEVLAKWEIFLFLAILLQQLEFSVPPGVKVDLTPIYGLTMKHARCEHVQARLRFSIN
Procedure: (§2) Inhibition of CYP1A2, CYP2D6, CYP2C9, CYP2C19, and CYP3A4 by TXA11114 was assessed in human liver microsomes by measuring the inhibition of probe substrate metabolism. Phenacetin, bufuralol, diclofenac, S-mephenytoin, and midazolam were used as probe substrates for CYP1A2, CYP2D6, CYP2C9, CYP2C19, and CYP3A4, respectively. Corresponding metabolites (acetaminophen, OH-bufuralol, 4-OH diclofenac, 4-OH mephenytoin, and 1-OH midazolam) were quantified by LC-MS/MS. Selective inhibitors (fluvoxamine (CYP1A2), quinidine (CYP2D6), sulfaphenazole (CYP2C9), ticlopidine (CYP2C19), and ketoconazole (CYP3A4)) were used as positive controls. Test and control compounds, prepared in DMSO at various concentrations, were spiked into 2× microsomal reaction mixtures, and 50 µL aliquots were transferred to individual wells. Probe substrates (25 µL, 4× concentration) were added to the respective wells and pre-incubated for 5 min at 37 °C. Reactions were initiated by the addition of 25 µL NADPH (4×) and incubated for 5 min (CYP3A4), 10 min (CYP1A2, CYP2D6, CYP2C9), or 20 min (CYP2C19). Reactions were quenched with 100 µL ice-cold acetonitrile containing glipizide as an internal standard. Plates were centrifuged at 4000 rpm for 15 min, and 100 µL supernatants were analyzed by LC-MS/MS in MRM mode. […] Percent inhibition was calculated as 100 − percent activity. IC50 values were determined using GraphPad Prism (version 5.02).

CYP2C19 = biological target: T2, CYP2C19 (Homo sapiens, UniProt P33261); assay: Cytochrome P450 inhibition; format: in vitro ADME; details: human liver microsomes; read-out: CYP Inhibition IC50, 2C19
T2 construct: from tissue; host or cells: human liver microsomes
T2 sequence (P33261 whole entry): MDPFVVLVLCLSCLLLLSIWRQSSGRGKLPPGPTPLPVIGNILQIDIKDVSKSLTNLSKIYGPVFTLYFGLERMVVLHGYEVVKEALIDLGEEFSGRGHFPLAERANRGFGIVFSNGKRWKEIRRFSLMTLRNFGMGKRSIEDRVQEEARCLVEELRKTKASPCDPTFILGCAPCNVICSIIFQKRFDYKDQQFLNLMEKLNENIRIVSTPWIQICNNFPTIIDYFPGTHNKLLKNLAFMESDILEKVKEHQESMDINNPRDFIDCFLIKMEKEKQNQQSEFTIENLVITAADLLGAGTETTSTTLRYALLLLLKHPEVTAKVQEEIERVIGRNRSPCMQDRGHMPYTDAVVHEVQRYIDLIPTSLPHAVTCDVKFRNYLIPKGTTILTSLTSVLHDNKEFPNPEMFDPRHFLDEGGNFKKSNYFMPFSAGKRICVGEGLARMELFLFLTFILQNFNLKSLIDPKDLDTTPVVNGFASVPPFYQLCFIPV
Procedure: as §2

CYP2C9 = biological target: T3, CYP2C9 (Homo sapiens, UniProt P11712); assay: Cytochrome P450 inhibition; format: in vitro ADME; details: human liver microsomes; read-out: CYP Inhibition IC50, 2C9
T3 construct: from tissue; host or cells: human liver microsomes
T3 sequence (P11712 whole entry): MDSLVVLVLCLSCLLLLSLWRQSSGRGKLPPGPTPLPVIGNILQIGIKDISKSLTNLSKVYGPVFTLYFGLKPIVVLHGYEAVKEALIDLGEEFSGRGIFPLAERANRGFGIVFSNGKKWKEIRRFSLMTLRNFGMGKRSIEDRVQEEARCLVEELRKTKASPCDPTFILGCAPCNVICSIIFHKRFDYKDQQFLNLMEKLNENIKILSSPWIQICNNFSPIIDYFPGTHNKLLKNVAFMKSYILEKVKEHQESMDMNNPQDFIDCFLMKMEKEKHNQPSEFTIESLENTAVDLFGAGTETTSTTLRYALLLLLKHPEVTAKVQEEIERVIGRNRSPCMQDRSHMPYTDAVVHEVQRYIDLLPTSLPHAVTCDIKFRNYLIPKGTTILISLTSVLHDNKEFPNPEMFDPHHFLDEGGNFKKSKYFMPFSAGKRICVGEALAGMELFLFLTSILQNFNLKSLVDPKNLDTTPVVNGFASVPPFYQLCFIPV
Procedure: as §2

[3] = Initial nephrotoxicity screen (BUN, creatinine); format: in vivo, Sprague Dawley rats; details: male rats, 10 mg/kg IV QD, 24 h after dosing
Procedure: BUN and CRE analyses were conducted by SRI International (Menlo Park, CA, USA). Adult male Sprague Dawley rats (n = 3 per group) received TXA11114 (10 mg/kg, IV, QD), and blood samples were collected 24 h after dosing.

P. aeruginosa ATCC 27853 [4] = assay: Neutropenic murine lung infection model; format: in vivo, CD-1 mice
Procedure: For the lung infection model, mice were anesthetized by IP injection of 0.15 mL of a ketamine (40 mg/kg) + xylazine (6 mg/kg) mixture and inoculated intranasally (IN) with 0.05 mL of a 4 × 10^8 CFU/mL bacterial suspension applied dropwise to the external nares. Two hours post-infection, mice received test articles IV (EPIs) or SC (levofloxacin). At 2 h or 24 h post-infection, mice were euthanized by CO2 asphyxiation, and lungs were aseptically removed, placed in 2 mL sterile PBS, and homogenized using the same procedure described above. Homogenates were serially diluted and plated (8 µL spots) onto BHI-charcoal and citrate agar, incubated overnight at 37 °C, and colonies were counted the following day.

P. aeruginosa = assay: Effect of inoculum on levofloxacin potentiation (MIC); format: cell-based, Pseudomonas aeruginosa
Procedure: as §1

## NCC(F)C[C@@H](N)CNC(=O)c1cc2ccc(-c3ccc(F)cc3)cc2[nH]1 (stereo partly drawn) [TXA11114, N-((2R)-2,5-diamino-4-fluoropentyl)-6-(4-fluorophenyl)-1H-indole-2-carboxamide]
[1]; 20 MRSN isolates, + TXA11114 […]
  Levofloxacin MIC reductions across panel: 2- to 32 fold
[1]; 20 highly MDR MRSN isolates, + TXA11114
  Share of isolates shifted to levofloxacin susceptibility: 65%
[1]; MRSN #994
  Levofloxacin MIC fold difference, +TXA11114: 8 fold
  Levofloxacin MIC, +TXA11114: 2 µg/mL
[1]; MRSN #1344
  Levofloxacin MIC, +TXA11114: 0.25 µg/mL
[1]; MRSN #3587
  Levofloxacin MIC fold difference, +TXA11114: 8 fold
  Levofloxacin MIC, +TXA11114: 1 µg/mL
[1]; MRSN #3705
  Levofloxacin MIC fold difference, +TXA11114: 32 fold
  Levofloxacin MIC, +TXA11114: 0.25 µg/mL
[1]; MRSN #5498
  Levofloxacin MIC fold difference, +TXA11114: 8 fold
  Levofloxacin MIC, +TXA11114: 4 µg/mL
[1]; MRSN #5519
  Levofloxacin MIC fold difference, +TXA11114: 16 fold
  Levofloxacin MIC, +TXA11114: 4 µg/mL
[1]; MRSN #5539
  Levofloxacin MIC fold difference, +TXA11114: 2 fold
  Levofloxacin MIC, +TXA11114: 8 µg/mL
[1]; MRSN #6220
  Levofloxacin MIC fold difference, +TXA11114: 16 fold
  Levofloxacin MIC, +TXA11114: 8 µg/mL
[1]; MRSN #6241
  Levofloxacin MIC fold difference, +TXA11114: 4 fold
  Levofloxacin MIC, +TXA11114: 2 µg/mL
[1]; MRSN #6678
  Levofloxacin MIC fold difference, +TXA11114: 8 fold
  Levofloxacin MIC, +TXA11114: 4 µg/mL
[1]; MRSN # 6695
  Levofloxacin MIC fold difference, +TXA11114: 16 fold
  Levofloxacin MIC, +TXA11114: 0.5 µg/mL
[1]; MRSN #8130
  Levofloxacin MIC fold difference, +TXA11114: 8 fold
  Levofloxacin MIC, +TXA11114: 2 µg/mL
[1]; MRSN #8139
  Levofloxacin MIC fold difference, +TXA11114: 8 fold
  Levofloxacin MIC, +TXA11114: 1 µg/mL
[1]; MRSN #8912
  Levofloxacin MIC fold difference, +TXA11114: 8 fold
  Levofloxacin MIC, +TXA11114: 2 µg/mL
[1]; MRSN #8914
  Levofloxacin MIC fold difference, +TXA11114: 8 fold
  Levofloxacin MIC, +TXA11114: 2 µg/mL
[1]; MRSN #8915
  Levofloxacin MIC fold difference, +TXA11114: 2 fold
  Levofloxacin MIC, +TXA11114: 64 µg/mL
[1]; MRSN #14981
  Levofloxacin MIC fold difference, +TXA11114: 16 fold
  Levofloxacin MIC, +TXA11114: 1 µg/mL
[1]; MRSN #15566
  Levofloxacin MIC fold difference, +TXA11114: 32 fold
  Levofloxacin MIC, +TXA11114: 0.25 µg/mL
[1]; MRSN #16344
  Levofloxacin MIC fold difference, +TXA11114: 16 fold
  Levofloxacin MIC, +TXA11114: 0.5 µg/mL
[1]; MRSN #369569
  Levofloxacin MIC fold difference, +TXA11114: 8 fold
  Levofloxacin MIC, +TXA11114: 4 µg/mL
P. aeruginosa ATCC 27853 [2]
  Cellular ATP level: did not result in ATP depletion
CYP1A2
  pIC50: < 4.00
CYP2C19
  pIC50: < 4.00
CYP2C9
  pIC50: < 4.00
[3]
  Blood Urea Nitrogen: 15.3 mg/dL
  Creatinine: 0.22 mg/dL
P. aeruginosa ATCC 27853 [4]; 30 mg/kg, IV, QID
  Effect of EPI alone on bacterial burden, lung: did not reduce bacterial burden
P. aeruginosa ATCC 27853 [4]; +24 hr, TXA11114 30 mg/kg IV QID alone
  Mean Log10 CFU (lung): 8.75 log10 CFU
P. aeruginosa ATCC 27853 [4]; TXA11114 30 mg/kg IV QID alone
  Mean Log10 CFU Change vs +2 hr Control, Δlog10 (treatment-baseline), lung: 4.16 log10 CFU
P. aeruginosa; OD600 0.001, TXA11114 25 μg/mL
  LVX MIC: 0.031 µg/mL
  LVX MIC fold difference: 32 fold
P. aeruginosa; OD600 0.001, TXA11114 50 μg/mL
  LVX MIC: 0.008 µg/mL
  LVX MIC fold difference: 128 fold
P. aeruginosa; OD600 0.025, TXA11114 25 μg/mL
  LVX MIC: 0.063 µg/mL
  LVX MIC fold difference: 32 fold
P. aeruginosa; OD600 0.025, TXA11114 50 μg/mL
  LVX MIC: 0.031 µg/mL
  LVX MIC fold difference: 64 fold
P. aeruginosa; standard broth microdilution inoculum
  Minimal potentiation concentration (MPC): 6.25 µg/mL
